Measured values from the supplement of paper PMC10307832.

Experiments:
Test in all cases: relative viability (nuclei count vs DMSO), 5 days (fraction); higher = more cells survive
[1] = compound: CC1=C(C=C(C=C1)NC(=O)C2=CC(=CC=C2)C(C)(C)C#N)NC3=CC4=C(C=C3)N=CN(C4=O)C [AZ628] + CC(=O)c1c(C)c2cnc(Nc3ccc(N4CCNCC4)cn3)nc2n(C2CCCC2)c1=O [Palbociclib] (partner 0.5 µM)
Summary of the method: (§1)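 Lung cancer cell lines in 1536-well plates were dosed by pin tool the day after seeding, either with one drug alone or with a fixed anchor-drug dose plus five library-drug doses (not always all listed) in √10 steps. After 5 days, cells were fixed and their nuclei stained in one step (final 0.05% Triton X-100, 1% formaldehyde, 1 ug/ml Hoechst), then counted on 4× images. Relative viability is the nuclei count in treated wells divided by that in vehicle wells. Values are medians of duplicate plates.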

[2] = compound: CC1=C(C=C(C=C1)NC(=O)C2=CC(=CC=C2)C(C)(C)C#N)NC3=CC4=C(C=C3)N=CN(C4=O)C [AZ628] + CS(=O)(=O)N1CCN(Cc2cc3nc(-c4cccc5[nH]ncc45)nc(N4CCOCC4)c3s2)CC1 [Pictilisib] (partner 1 µM)
Summary of the method: as §1

[3] = compound: CC1=C(C=C(C=C1)NC(=O)C2=CC(=CC=C2)C(C)(C)C#N)NC3=CC4=C(C=C3)N=CN(C4=O)C [AZ628] + O=C(CCCCCCC(=O)Nc1ccccc1)NO [Vorinostat] (partner 1 µM)
Summary of the method: as §1

[4] = compound: C[As](C)SC[C@H](NC(=O)CC[C@H](N)C(=O)O)C(=O)NCC(=O)O [Darinaparsin] + COc1cccc2cc(-c3nc([C@H]4CC[C@H](C(=O)O)CC4)n4ncnc(N)c34)[nH]c12 [OSI-027] (partner 0.5 µM)
Summary of the method: as §1

Cell Line: LCLC-97TM1
- relative viability ([1]; first compound 0.08 µM): 0.231
- relative viability ([1]; first compound 0.253 µM): 0.217
- relative viability ([1]; first compound 0.8 µM): 0.193
- relative viability ([1]; first compound 2.53 µM): 0.182
- relative viability ([1]; first compound 8 µM): 0.113
- relative viability ([2]; first compound 0.08 µM): 0.201
- relative viability ([2]; first compound 0.253 µM): 0.183
- relative viability ([2]; first compound 0.8 µM): 0.203
- relative viability ([2]; first compound 2.53 µM): 0.141
- relative viability ([2]; first compound 8 µM): 0.12
- relative viability ([3]; first compound 0.08 µM): 1.03
- relative viability ([3]; first compound 0.253 µM): 0.729
- relative viability ([3]; first compound 0.8 µM): 0.82
- relative viability ([3]; first compound 2.53 µM): 0.756
- relative viability ([3]; first compound 8 µM): 0.13
- relative viability ([4]; first compound 0.08 µM): 0.654
- relative viability ([4]; first compound 0.8 µM): 0.468
- relative viability ([4]; first compound 2.53 µM): 0.514
- relative viability ([4]; first compound 8 µM): 0.615
